The test system of this test is PD-L1. As to the kind of experiment: Rescue of mouse splenocyte proliferation in presence of recombinant PD-L1 (CFSE proliferation assay). The test is classed as cell-based. Conditions: anti-CD3/CD28 stimulated mouse splenocytes in presence of ligand (PDL-1), 72 h, stimulated splenocyte proliferation normalised as 100%. On the procedure:
Rescue of Mouse Splenocyte Proliferation in Presence of Recombinant PD-L1/PD-L2
Recombinant mouse PD-L1 (rm-PDL-1, cat no: 1019-B7-100 & rh-PDL-1, cat no: 156-B7-100, R&D Systems) were used as the source of PD-L1.
Mouse splenocytes harvested from 6-8 weeks old C57 BL6 mice; RPMI 1640 (GIBCO, Cat #11875); DMEM with high glucose (GIBCO, Cat #D6429); Fetal Bovine Serum [Hyclone, Cat #SH30071.03]; Penicillin (10000 unit/mL)-Streptomycin(10,000 μg/mL) Liquid (GIBCO, Cat #15140-122); MEM Sodium Pyruvate solution 100 mM (100×), Liquid (GIBCO, Cat #11360); Nonessential amino acid (GIBCO, Cat #11140); L-Glutamine (GIBCO, Cat #25030); Anti-CD3 antibody (eBiosciences—16-0032); Anti-CD28 antibody (eBiosciences—16-0281); ACK lysis buffer (1 mL) (GIBCO, Cat #-A10492); Histopaque (density-1.083 gm/mL) (SIGMA 10831); Trypan blue solution (SIGMA-T8154); 2 mL Norm Ject Luer Lock syringe-(Sigma 2014-12); 40 μm nylon cell strainer (BD FALCON 35230); Hemacytometer (Bright line-SIGMA Z359629); FACS Buffer (PBS/0.1% BSA): Phosphate Buffered Saline (PBS) pH 7.2 (HiMedia TS1006) with 0.1% Bovine Serum Albumin (BSA) (SIGMA A7050) and sodium azide (SIGMA 08591); 5 mM stock solution of CFSE: CFSE stock solution was prepared by diluting lyophilized CFSE with 180 μL of Dimethyl sulfoxide (DMSO C2H6SO, SIGMA-D-5879) and aliquoted in to tubes for further use. Working concentrations were titrated from 10 μM to 1 μM. (eBioscience—650850-85); 0.05% Trypsin and 0.02% EDTA (SIGMA 59417C); 96-well format ELISA plates (Corning CLS3390); BD FACS caliber (E6016); Recombinant mouse B7-H1/PDL1 Fc Chimera, (rm-PD-L1 cat no: 1019-B7-100).
Splenocytes harvested in a 50 mL falcon tube by mashing mouse spleen in a 40 μm cell strainer were further treated with 1 mL ACK lysis buffer for 5 min at room temperature. After washing with 9 mL of RPMI complete media, cells were re-suspended in 3 mL of 1×PBS in a 15 mL tube. 3 mL of Histopaque was added carefully to the bottom of the tube without disturbing overlaying splenocyte suspension. After centrifuging at 800×g for 20 min at room temperature, the opaque layer of splenocytes was collected carefully without disturbing/mixing the layers. Splenocytes were washed twice with cold 1×PBS followed by total cell counting using Trypan Blue exclusion method and used further for cell based assays.
Splenocytes were cultured in RPMI complete media (RPMI+10% fetal bovine serum+1 mM sodium pyruvate+10,000 units/mL penicillin and 10,000 μg/mL streptomycin) and maintained in a CO2 incubator with 5% CO2 at 37° C.
CFSE is a dye that passively diffuses into cells and binds to intracellular proteins. 1×10^6 cells/mL of harvested splenocytes were treated with 5 μM of CFSE in pre-warmed 1×PBS/0.1% BSA solution for 10 min at 37° C. Excess CFSE was quenched using 5 volumes of ice-cold culture media to the cells and incubated on ice for 5 min. CFSE labelled splenocytes were further given three washes with ice cold complete RPMI media. CFSE labelled 1×10^5 splenocytes added to wells containing either MDA-MB231 cells (1×10^5 cells cultured in high glucose DMEM medium) or recombinant […] PDL-1 (100 ng/mL) and test compounds. Splenocytes were stimulated with anti-mouse CD3 and anti-mouse CD28 antibody (1 μg/mL each), and the culture was further incubated for 72 h at 37° C. with 5% CO2. Cells were harvested and washed thrice with ice cold FACS buffer and % proliferation was analyzed by flow cytometry with 488 nm excitation and 521 nm emission filters.
Percent splenocyte proliferation was analyzed using cell quest FACS program and percent rescue of splenocyte proliferation by compound was estimated after deduction of % background proliferation value and normalising to % stimulated splenocyte proliferation (positive control) as 100%.
Stimulated splenocytes: Splenocytes+anti-CD3/CD28 stimulation
Background proliferation: Splenocytes+anti-CD3/CD28+PD-L1
Compound proliferation: Splenocytes+anti-CD3/CD28+PD-L1+Compound […]

The record followed here is US10961205B2, “1,2,4-oxadiazole derivatives as immunomodulators” (Aurigene Discovery Technologies Limited, priority 2013, dated 2021).

The structures appear in SMILES notation.

With `CC(O)[C@@H](N)c1noc([C@@H](CC(N)=O)NC(=O)N[C@H](CO)C(=O)O)n1` (some centres unmarked) [Compound 5], the “Percent rescue of splenocyte proliferation @ 100 nM compound concentration” value (“Percent rescue” for short) is 67.6%.

Turning to `CC(O)[C@H](NC(=O)N[C@@H](CCC(=O)O)c1nc([C@@H](N)CO)no1)C(=O)O` (some centres unmarked) [Compound 19], the “Percent rescue” value was found to be 88%.

Take `CC(O)[C@H](N)c1noc([C@H](CCC(N)=O)NC(=O)N[C@@H](CO)C(=O)O)n1` (some centres unmarked) [Compound 22]: the “Percent rescue” value is 55%.

Take `CCCC(=O)N[C@@H](CO)c1noc([C@H](CC(N)=O)NC(=O)N[C@H](C(=O)O)C(C)O)n1` (some centres unmarked) [Compound 9]: the “Percent rescue” value is 34%.

With `CC(O)[C@H](NC(=O)N[C@@H](CC(N)=O)c1nc([C@@H](N)CO)no1)C(=O)O` (some centres unmarked) [Compound 4], the “Percent rescue” value was found to be 89%.

`CC(O)[C@H](NC(=O)N[C@H](CC(N)=O)c1nc([C@@H](N)CO)no1)C(=O)O` (some centres unmarked) [Compound 13]: the “Percent rescue” value amounted to 74%.

Consider `NC(=O)CC[C@H](NC(=O)N[C@@H](CO)C(=O)O)c1nc([C@@H](N)CO)no1` [Compound 21], for which the “Percent rescue” value is reported as 47%.

For the compound `NC(=O)C[C@H](N)c1nc([C@@H](N)CO)no1` [Compound 1], the “Percent rescue” value is recorded as 93%.

Turning to `CC(O)[C@H](NC(=O)N[C@@H](CCC(N)=O)c1nc([C@@H](N)CO)no1)C(=O)O` (some centres unmarked) [Compound 20], the “Percent rescue” value is on record as 69%.

As to `CC(O)[C@@H](NC(=O)N[C@H](CC(N)=O)c1nc([C@H](N)CO)no1)C(=O)O` (some centres unmarked) [Compound 15], the “Percent rescue” value is reported as 83%.

On to `CC(O)[C@H](NC(=O)N[C@@H](CC(=O)O)c1nc([C@@H](N)CO)no1)C(=O)O` (some centres unmarked) [Compound 24], for which the “Percent rescue” value is on record as 52%.

As to `CC(O)[C@H](NC(=O)N[C@@H](CC(N)=O)c1nc([C@@H](N)CO)no1)C(N)=O` (some centres unmarked) [Compound 7], the “Percent rescue” value is 55%.

Turning to `COC[C@H](N)c1noc([C@H](CC(N)=O)NC(=O)N[C@H](C(=O)O)C(C)O)n1` (some centres unmarked) [Compound 10], the “Percent rescue” value is recorded as 49%.

For the compound `CC(O)[C@@H](NC(=O)N[C@H](CC(N)=O)c1nc([C@@H](N)CO)no1)C(=O)O` (some centres unmarked) [Compound 18], the “Percent rescue” value came to 64%.

Turning to `CC(O)[C@@H](NC(=O)N[C@@H](CC(N)=O)c1nc([C@@H](N)CO)no1)C(=O)O` (some centres unmarked) [Compound 11], the “Percent rescue” value is given as 90%.

On to `CC(O)[C@H](NC(=O)N[C@@H](CC(N)=O)c1nc([C@H](N)CO)no1)C(=O)O` (some centres unmarked) [Compound 12], for which the “Percent rescue” value is 64%.

Consider `N[C@@H](CO)c1noc([C@H](CCC(=O)O)NC(=O)N[C@@H](CO)C(=O)O)n1` [Compound 8], for which the “Percent rescue” value stood at 67%.

`N[C@@H](CO)c1noc([C@H](CC(=O)O)NC(=O)N[C@@H](CO)C(=O)O)n1` [Compound 25]: the “Percent rescue” value came to 91%.

Consider `CC(O)[C@H](NC(=O)N[C@@H](CCC(N)=O)c1nc([C@@H](N)C(C)O)no1)C(=O)O` (some centres unmarked) [Compound 23], for which the “Percent rescue” value is 74%.

As to `COC(=O)[C@@H](NC(=O)N[C@@H](CC(N)=O)c1nc([C@@H](N)CO)no1)C(C)O` (some centres unmarked) [Compound 6], the “Percent rescue” value stood at 84%.

As to `CC(O)[C@H](NC(=O)N[C@H](CC(N)=O)c1nc([C@H](N)CO)no1)C(=O)O` (some centres unmarked) [Compound 17], the “Percent rescue” value is reported as 55%.

On to `NC(=O)C[C@H](NC(=O)N[C@@H](CO)C(=O)O)c1nc([C@@H](N)CO)no1` [Compound 2], for which the “Percent rescue” value is listed as 50%.

For the compound `CC(O)[C@@H](NC(=O)N[C@@H](CC(N)=O)c1nc([C@H](N)CO)no1)C(=O)O` (some centres unmarked) [Compound 16], the “Percent rescue” value turned out to be 72%.
